Measurements taken from PMC6333907, “Oligopeptide Signaling through TbGPR89 Drives Trypanosome Quorum Sensing” (Cell, 2019).

Target: T1, YjdL (Escherichia coli, UniProt P39276)
T1 construct: gene dtpC; pET28a-YjdL, His-tag vector, overexpressed in whole E. coli BL21-CodonPlus (DE3)-RIPL cells
T1 sequence (P39276 1-485): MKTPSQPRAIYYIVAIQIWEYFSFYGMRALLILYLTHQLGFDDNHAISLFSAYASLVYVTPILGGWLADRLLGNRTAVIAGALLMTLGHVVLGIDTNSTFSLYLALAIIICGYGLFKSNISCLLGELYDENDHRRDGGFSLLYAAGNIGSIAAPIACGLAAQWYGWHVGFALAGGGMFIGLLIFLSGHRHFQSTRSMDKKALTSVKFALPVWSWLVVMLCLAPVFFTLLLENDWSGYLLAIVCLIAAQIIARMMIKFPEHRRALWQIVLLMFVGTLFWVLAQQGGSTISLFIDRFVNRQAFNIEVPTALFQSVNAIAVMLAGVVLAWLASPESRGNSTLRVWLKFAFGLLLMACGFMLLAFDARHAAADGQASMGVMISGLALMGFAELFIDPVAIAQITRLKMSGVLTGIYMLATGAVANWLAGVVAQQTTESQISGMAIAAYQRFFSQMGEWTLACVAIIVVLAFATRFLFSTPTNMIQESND
Experiment: fluorescent dipeptide uptake in E. coli expressing the protein
Assay type: cell-based
Conditions: pH 6.5, 37 °C, 15-20 min; printed final 500 μM (1.5 μl of 20 mM in 100 μl); labelled compound

For `Cc1c(CC(=O)NCCCC[C@H](NC(=O)CCN)C(=O)O)c(=O)oc2cc(N)ccc12` [β-Ala-Lys-AMCA], which “fluorescent dipeptide uptake in E. coli expressing the protein” value is on record?
The value was “Relative uptake of fluorescent dipeptide β-ALA-Lys-AMCA in E. coli induced (+IPTG)”.
